Like-named read-outs stand apart in the source and are kept apart here.
Key:
[1] = tested on: Stage IIIb/IV NSCLC
Protocol: (§1) In both portions of the study, subjects received 150 mg of erlotinib orally once daily. […] Tumors were to be assessed every 6 weeks (±3 days) up to the first 24 weeks of the study, then every 12 weeks (+7 days) independent of treatment cycle.
Subjects were also administered 150 mg/day erlotinib during the phase 2 trial.

[2] = tested on: Stage IIIb/IV NSCLC; conditions: for On-Study Death / Primary Cause of On-Study Death: Adverse Event / Primary Cause of On-Study Death: Disease Progression / Primary Reason for Discontinuing Study Treatment: Death / Primary Reason for Discontinuing Study Treatment: Progressive Disease (Radiographic Progression): Enrolled/Randomized set; for disease control rate / objective response (CR or PR): HRG high
Protocol: as §1
All efficacy analyses were performed on the full analysis set, which includes all subjects in the randomized analysis set who received at least one dose of randomized study medication. The primary efficacy endpoint was PFS. PFS is defined as the time from the date of randomization to the earlier of the dates of the first objective documentation of radiographic disease progression or death due to any cause. A subject who was alive with no Objective documentation of (radiographic) disease progression by the data cut-off date was to be censored at the date of the last evaluable tumor assessment. The key secondary efficacy endpoint, overall survival, was defined as the time from the date of randomization to death due to any cause and was analyzed in the same manner as the primary efficacy endpoint PFS.
Kaplan-Meier curves were generated for PFS and used to calculate medians and 95% CIs for each treatment group. […] Cox's proportional hazards model.
The stratification factors included histology (Adenocarcinoma vs Non-Adenocarcinoma) and best response to prior therapy (CR/PR/SD vs PD).
Unless otherwise indicated, log-rank p-values and HRs for PFS and OS were based on the primary analysis adjusted for the stratification factors at randomization as described above.

[3] = 18 mg/kg patritumab + erlotinib
[4] = Full Analysis Set, 9 mg/kg patritumab + erlotinib
[5] = Full Analysis Set, 18 mg/kg patritumab + erlotinib
[6] = Full Analysis Set, Kaplan-Meier, 9 mg/kg patritumab + erlotinib
[7] = Full Analysis Set, Kaplan-Meier, 18 mg/kg patritumab + erlotinib
[8] = HRG high (dCt<3.9), 9 mg/kg patritumab + erlotinib
[9] = HRG high (dCt<3.9), 18 mg/kg patritumab + erlotinib
[10] = HRG high (dCt<3.9), patritumab doses combined + erlotinib
[11] = HRG high and EGFR wild type, 9 mg/kg patritumab + erlotinib
[12] = HRG high and EGFR wild type, 18 mg/kg patritumab + erlotinib
[13] = HRG high and EGFR wild type, patritumab doses combined + erlotinib
[14] = HRG low, 9 mg/kg patritumab + erlotinib
[15] = HRG low, 18 mg/kg patritumab + erlotinib
[16] = HRG low, patritumab doses combined + erlotinib

patritumab + erlotinib: combination of 150 mg erlotinib daily and anti-HER3 antibody patritumab IV every 3 weeks (18 mg/kg, or 18 mg/kg loading with 9 mg/kg maintenance)
response ([1]; Phase 1b, 7 subjects): No response was recorded | grade of reported AEs ([1]; in vivo): Most reported AEs were grade 1 or 2 | patritumab-related AE: decreased appetite ([1]; in vivo): 2 subjects | serious AEs ([1]; in vivo): Three subjects had four serious AEs | HR (pooled dose vs placebo) for PFS in the HRG high group ([2]; Cut-off for delta Ct 2.7 (first quartile)): 0.180 | HR (pooled dose vs placebo) for PFS in the HRG high group ([2]; Cut-off for delta Ct 3.0): 0.177 | HR (pooled dose vs placebo) for PFS in the HRG high group ([2]; Cut-off for delta Ct 3.5): 0.283 | HR (pooled dose vs placebo) for PFS in the HRG high group ([2]; Cut-off for delta Ct 3.9 (median)): 0.324 | HR (pooled dose vs placebo) for PFS in the HRG high group ([2]; Cut-off for delta Ct 4.5): 0.490 | HR (pooled dose vs placebo) for PFS in the HRG high group ([2]; Cut-off for delta Ct 5.0 (third quartile)): 0.561 | On-Study Death ([2]; 9 mg/kg patritumab + erlotinib): 9 (12.5%) subjects (%) | Primary Cause of On-Study Death: Adverse Event ([2]; 9 mg/kg patritumab + erlotinib): 4 (5.6%) subjects (%) | Primary Cause of On-Study Death: Disease Progression ([2]; 9 mg/kg patritumab + erlotinib): 4 (5.6%) subjects (%) | Primary Reason for Discontinuing Study Treatment: Death ([2]; 9 mg/kg patritumab + erlotinib): 2 (2.8%) subjects (%) | Primary Reason for Discontinuing Study Treatment: Progressive Disease (Radiographic Progression) ([2]; 9 mg/kg patritumab + erlotinib): 45 (62.5%) subjects (%) | On-Study Death [2, 3]: 20 (27.8%) subjects (%) | Primary Cause of On-Study Death: Adverse Event [2, 3]: 11 (15.3%) subjects (%) | Primary Cause of On-Study Death: Disease Progression [2, 3]: 8 (11.1%) subjects (%) | Primary Reason for Discontinuing Study Treatment: Death [2, 3]: 11 (15.3%) subjects (%) | Primary Reason for Discontinuing Study Treatment: Progressive Disease (Radiographic Progression) [2, 3]: 42 (58.3%) subjects (%) | Subjects (%) with events, OS [2, 4]: 46 (64.8%) subjects (%) | Subjects (%) with events, PFS [2, 4]: 52 (73.2%) subjects (%) | Subjects (%) with events, OS [2, 5]: 54 (77.1%) subjects (%) | Subjects (%) with events, PFS [2, 5]: 58 (82.9%) subjects (%) | Overall Survival, time to event, Median [2, 6]: 6.3 months | Progression-Free Survival, time to event, Median [2, 6]: 2.5 months | Overall Survival, time to event, Median [2, 7]: 5.3 months | Progression-Free Survival, time to event, Median [2, 7]: 1.4 months | number of subjects with the response being CP/PR ([2]; Full Analysis Set, high-dose patritumab + erlotinib): 5 (7.1%) subjects (%) | number of subjects with the response being CP/PR ([2]; Full Analysis Set, low-dose patritumab + erlotinib): 9 (12.9%) subjects (%) | OS Rate at 1 Year (%) [2, 8]: 49.2% | OS Rate at 6 Months (%) [2, 8]: 68.8% | OS Rate at 9 Months (%) [2, 8]: 56.3% | PFS Rate at 8 Weeks (%) [2, 8]: 67.7% | PFS Rate at 14 Weeks (%) [2, 8]: 33.9% | PFS Rate at 26 Weeks (%) [2, 8]: 20.3% | Progression-Free Survival, time to event, Median [2, 8]: 3.0 months | Subjects (%) with events, OS [2, 8]: 9 (56.3%) subjects (%) | Subjects (%) with events, PFS [2, 8]: 12 (75.0%) subjects (%) | OS Rate at 1 Year (%) [2, 9]: 22.2% | OS Rate at 6 Months (%) [2, 9]: 50.7% | OS Rate at 9 Months (%) [2, 9]: 44.3% | PFS Rate at 8 Weeks (%) [2, 9]: 56.3% | PFS Rate at 14 Weeks (%) [2, 9]: 50.0% | PFS Rate at 26 Weeks (%) [2, 9]: 15.6% | Progression-Free Survival, time to event, Median [2, 9]: 3.4 months | Subjects (%) with events, OS [2, 9]: 12 (70.6%) subjects (%) | Subjects (%) with events, PFS [2, 9]: 13 (76.5%) subjects (%) | OS Rate at 1 Year (%) [2, 10]: 35.8% | OS Rate at 6 Months (%) [2, 10]: 59.6% | OS Rate at 9 Months (%) [2, 10]: 50.2% | PFS Rate at 8 Weeks (%) [2, 10]: 62.1% | PFS Rate at 14 Weeks (%) [2, 10]: 42.5% | PFS Rate at 26 Weeks (%) [2, 10]: 18.4% | Progression-Free Survival, time to event, Median [2, 10]: 3.0 months | Subjects (%) with events, OS [2, 10]: 21 (63.6%) subjects (%) | Subjects (%) with events, PFS [2, 10]: 25 (75.8%) subjects (%) | Overall Survival, time to event, Median ([2]; HRG high (dCt<3.9), preliminary, 9 mg/kg patritumab + erlotinib): 10.6 months | Overall Survival, time to event, Median ([2]; HRG high (dCt<3.9), preliminary, 18 mg/kg patritumab + erlotinib): 6.1 months | Overall Survival, time to event, Median ([2]; HRG high (dCt<3.9), preliminary, patritumab doses combined + erlotinib): 9.7 months | Progression-Free Survival, time to event, Median [2, 11]: 2.8 months | Subjects (%) with events, PFS [2, 11]: 6 ( 85.7%) subjects (%) | Progression-Free Survival, time to event, Median [2, 12]: 2.8 months | Subjects (%) with events, PFS [2, 12]: 5 (100.0%) subjects (%) | Progression-Free Survival, time to event, Median [2, 13]: 2.8 months | Subjects (%) with events, PFS [2, 13]: 11 (91.7%) subjects (%) | disease control rate ([2]; 9 mg/kg patritumab plus erlotinib): 62.5% | disease control rate ([2]; 18 mg/kg patritumab plus erlotinib): 52.9% | objective response (CR or PR) ([2]; high-dose patritumab + erlotinib): No subject | objective response (CR or PR) ([2]; low-dose patritumab + erlotinib): 4 (25.0%) subjects (%) | Overall Survival, time to event, Median [2, 14]: 6.3 months | Progression-Free Survival, time to event, Median [2, 14]: 2.1 months | Subjects (%) with events, OS [2, 14]: 10 ( 66.7%) subjects (%) | Subjects (%) with events, PFS [2, 14]: 12 ( 80.0%) subjects (%) | Overall Survival, time to event, Median [2, 15]: 9.6 months | Progression-Free Survival, time to event, Median [2, 15]: 1.4 months | Subjects (%) with events, OS [2, 15]: 12 ( 63.2%) subjects (%) | Subjects (%) with events, PFS [2, 15]: 13 ( 68.4%) subjects (%) | Overall Survival, time to event, Median [2, 16]: 9.3 months | Progression-Free Survival, time to event, Median [2, 16]: 1.9 months | Subjects (%) with events, OS [2, 16]: 22 ( 64.7%) subjects (%) | Subjects (%) with events, PFS [2, 16]: 25 ( 73.5%) subjects (%) | improvement in PFS or OS as compared to erlotinib plus placebo ([2]; full analysis set): no significant improvement in PFS or OS | treatment difference in PFS and OS ([2]; subjects with tumors expressing low levels of HRG (dCt>3.9)): no clear treatment difference in PFS and OS

— patent US12497666B2, “Nucleic acid biomarker and use thereof” (Daiichi Sankyo Co., Ltd., priority 2013, dated 2025)
